Experiments:
[1] = tested on: cell-free peptide synthesis system derived from Escherichia coli; assay: Cell-free biosynthesis of the integrin binding peptide fusion protein with tag, reaction time 10 minutes, ELISA; type: biochemical; details: for Biosynthesis amount of fusion protein: relative value, control without tag = 1, reaction time 10 minutes, fusion protein SEQ ID NO: 5, SKIK encoded by SEQ ID NO: 110
Description: (§1) The cell-free biosynthesis of the polypeptide was carried out in a translation solution containing a template DNA, PUREfrex 2.0 (GeneFrontier, PF201-0.25-5), and Aminoacyl tRNA (1). 1.25 μL (62.5 ng) of the template DNA prepared to 50 ng/μL, 2.5 μL of PUREfrex 2.0 Solution I, 0.25 μL of Solution II, 0.5 μL of Solution III, and 0.5 μL of Aminoacyl tRNA (1) were mixed and mixture was subjected to a reaction at 37° ° C. for 1 hour.
(§2) The amount of the biosynthesized polypeptide was measured by ELISA. 50 ng of Recombinant Human Integrin αVβ3 (R&D systems, 3050-AV-050) was immobilized in each well of a 96-well plate and blocked with Blocker Casein in PBS (Thermo, 37528), and then a cell-free biosynthesis solution diluted with Can Get Signal Immunoreaction Enhancer Solution I (TOYOBO, NKB-101) containing 5 mmol/L MgCl2 was added thereto, and the mixture was subjected to a reaction at room temperature for 3 hours. After washing with 5 mmol/L MgCl2/0.05% Tween 20-containing phosphate buffered saline (PBS), an anti-Myc antibody (Cell Signaling, 14038S) diluted with Can Get Signal Immunoreaction Enhancer Solution II (TOYOBO, NKB-101) was added thereto, and the mixture was subjected to a reaction at room temperature for 2 hours. After washing with PBS containing 5 mmol/L MgCl2/0.05% Tween 20, Super Signal ELISA Femto Substrate (Thermo, 37075) was added thereto, and the luminescence was measured. The amount of the fusion protein in the cell-free biosynthesis solution was calculated based on a calibration curve created from the fusion protein having a known concentration. The luminescence measurement was performed twice, and the average value of the amounts of the fusion protein was calculated. Table 2-1 and Table 2-2 show relative values of the biosynthesis amounts of respective fusion proteins in a case where the amount of the fusion protein of the control example was set to the reference value 1.
As a comparative control, a SKIK tag represented by SEQ ID NO: 107 was selected. The polypeptide to be biosynthesized is the fusion protein containing the integrin binding peptide, as in Example 1.
Using a template DNA including DNA sequences (SEQ ID NOs: 73 to 98) encoding VKKX tags represented by SEQ ID NOs: 27 to 52 produced in Example 1, and a DNA sequence (SEQ ID NO: 110) encoding a SKIK tag represented by SEQ ID NO: 107 produced in Example 2, the biosynthesis reaction was performed in the same manner as in Example 1 by setting the reaction time to 10 minutes. In the same manner in Example 1, the fusion protein was expressed by the cell-free peptide synthesis system and quantified by ELISA. The measurement was performed twice, and the average value of the amounts of the fusion protein was calculated. […] As control example used in Example 1, the control example of the reference value 1 has a form in which the base sequence (SEQ ID NO: 6) encoding the fusion protein is arranged immediately after the start codon ATG.

[2] = tested on: cell-free peptide synthesis system derived from Escherichia coli; assay: Cell-free biosynthesis of the integrin binding peptide fusion protein with N-terminal tag, 1 hour reaction, amount measured by ELISA; type: biochemical
Source text: In the cell-free peptide synthesis system derived from Escherichia coli, the effect of the VKKX tag on the biosynthesis amount of the polypeptide was examined. As a polypeptide to be biosynthesized, an integrin binding peptide containing cysteine and chloroacetyl lysine was selected. In this polypeptide, a thiol group of cysteine and a chloroacetyl group of chloroacetyl lysine spontaneously form a thioether bond to become a cyclic polypeptide.
A fusion protein in which an integrin binding peptide, a Myc tag, and a HiBiT tag were linked in this order was designed. As a spacer, Gly-Gly-Ser was inserted between the integrin binding peptide and the Myc tag and between the Myc tag and the HiBiT tag. The amino acid sequence of this fusion protein is SEQ ID NO: 5, and the base sequence encoding this fusion protein is SEQ ID NO: 6. In SEQ ID NO: 5, the integrin binding peptide ranges to the amino acid at the twelfth position (that is, alanine) from an N-terminal, and the amino acid at eleventh position from the N-terminal is chloroacetyl lysine. The triplet TAG at the positions 31 to 33 from the 5′ terminal of the base sequence set forth in SEQ ID NO: 6 was assigned to the codon of chloroacetyl lysine. The end of the base sequence set forth in SEQ ID NO: 6 is the stop codon TAA.
A base sequence encoding a tagged fusion protein in which methionine, a VKKX tag (any of SEQ ID nOs: 7 to 52), and a fusion protein (SEQ ID NO: 5) were linked in this order was designed. In this base sequence, a base sequence (any of SEQ ID nOs: 53 to 98) encoding a VKKX tag is arranged immediately after the start codon ATG, and a base sequence encoding a fusion protein immediately after the base sequence (SEQ ID NO: 6) encoding the VKKX tag is arranged.
As a control example for evaluating the effect of the VKKX tag, a base sequence in which a base sequence (SEQ ID NO: 6) encoding a fusion protein arranged immediately after the start codon ATG was designed.
In order to translate chloroacetyl lysine which is an unnatural amino acid, a tRNA in which the anticodon was CUA and paired with the UAG codon of mRNA was prepared. This tRNA was aminoacylated with an N-chloroacetyl lysine hosphoro 2′ deoxyribocytidylylriboadenosine (pdCpA) ester. This aminoacyl tRNA is referred to as an Aminoacyl tRNA (1).
as §1
as §2, with “Table 2-1 and Table 2-2 show relative values of the biosynthesis amounts of respective fusion proteins in a case where the amount of the fusion protein of the control example was set to the reference value 1.” left out

Substance | Biosynthesis amount of fusion protein [1] | increase of biosynthesis amount of the fusion protein ([2]; Example 1, versus control without tag, fusion protein SEQ ID NO: 5, 1 hour) [times] | Biosynthesis amount of fusion protein ([2]; relative value, control example without tag = 1, fusion protein SEQ ID NO: 5, 37° C. for 1 hour, average of two measurements) | Biosynthesis amount of fusion protein ([2]; tag encoded by base sequence SEQ ID NO 73, GC content 17%, control without tag = 1) | Biosynthesis amount of fusion protein ([2]; tag encoded by base sequence SEQ ID NO 111, GC content 33%, control without tag = 1) | Biosynthesis amount of fusion protein ([2]; tag encoded by base sequence SEQ ID NO 112, GC content 50%, control without tag = 1) | increase rate of expression level of the fusion protein ([1]; text of Example 3, incubation time of biosynthesis reaction 10 minutes) [times] | Biosynthesis amount of fusion protein ([2]; tag encoded by base sequence SEQ ID NO 108, GC content 8%, control without tag = 1) | Biosynthesis amount of fusion protein ([2]; tag encoded by base sequence SEQ ID NO 109, GC content 25%, control without tag = 1) | Biosynthesis amount of fusion protein ([2]; tag encoded by base sequence SEQ ID NO 110, GC content 42%, control without tag = 1)
SEQ ID NO: 27: VKKX tag, amino acid sequence VKKTKT (VKKX Tag) | 12.81 | 4.9 | 4.94 | 4.94 | 3.83 | 3.77 |  |  |  | 
SEQ ID NO: 107: tag consisting of an amino acid sequence of SKIK, disclosed in WO2016/204198A; comparative control (SKIK Tag) [reference compound] | 1.27 |  |  |  |  |  | 1.3 | 3.79 | 4.18 | 1.46

Reference: US20240247253A1, “PRODUCTION METHOD OF POLYPEPTIDE, TAG, EXPRESSION VECTOR, EVALUATION METHOD OF POLYPEPTIDE, PRODUCTION METHOD OF NUCLEIC ACID DISPLAY LIBRARY, AND SCREENING METHOD” (FUJIFILM Corporation, priority 2021, published 2024)
